Measured values published in publication PMC9465256, “Discovering monoacylglycerol lipase inhibitors by a combination of fluorogenic substrate assay and activity-based protein profiling” (Frontiers in Pharmacology, 2022).

Legend:
[1] = molecular target: T1, human ABHD12 (Homo sapiens, UniProt Q8N2K0); test: ABHD12 activity by competitive ABPP with FP-TAMRA; type: biochemical; conditions: for potency towards ABHD12: 100 µM; for potency towards ABHD12 / inhibition at 100 µM: competitive ABPP; for inhibition at 100 µM: recombinant human ABHD12, 100 µM compound
T1 construct: expressed in transfected cells; host or cells: HEK293T (transient transfection; membrane fraction)
T1 sequence (Q8N2K0 1-398): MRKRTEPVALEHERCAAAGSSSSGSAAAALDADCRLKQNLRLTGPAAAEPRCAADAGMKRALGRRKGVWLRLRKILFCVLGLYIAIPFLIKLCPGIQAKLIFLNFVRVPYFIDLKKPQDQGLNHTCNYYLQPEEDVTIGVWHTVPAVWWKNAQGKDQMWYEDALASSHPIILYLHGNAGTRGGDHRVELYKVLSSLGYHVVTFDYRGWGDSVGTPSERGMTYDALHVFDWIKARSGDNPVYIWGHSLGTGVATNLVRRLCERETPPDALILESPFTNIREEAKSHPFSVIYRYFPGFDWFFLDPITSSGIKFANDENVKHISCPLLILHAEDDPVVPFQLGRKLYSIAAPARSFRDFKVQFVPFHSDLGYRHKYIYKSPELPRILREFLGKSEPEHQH
How it was run: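 Membrane fractions of HEK293T cells transiently overexpressing human ABHD12 (1 mg/ml) preincubated with inhibitor or DMSO for 30 min at room temperature, then labelled with FP-TAMRA (250 nM final) for 20 min. Quenched samples resolved by SDS-PAGE and read by in-gel fluorescence scanning (Cy3 settings).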

[2] = test system: A431 cells; test: Cell viability assay (CCK-8), A431; type: cell-based; conditions: for IC50: Homo sapiens, A-431, read-out: Antiproliferation activity (pIC50 ± SEM) A431 (converted)
Procedure: (§1) Various cancer cell lines, including human colon cancer cell line HT-29, ovarian cell line OVCAR-3, melanoma cell line B16-F10, skin squamous cancer cells A431, cervical cancer cells Hela, lung cancer cell lines A549, H1975, and HCC827, were purchased from American type culture collection (ATCC). A431, H1975, B16-F10, OVCAR-3, HT-29, HCC827, Hela, and A549 cells were cultured in Dulbecco’s modified Eagle medium (DMEM, Gibco) containing 10% fetal bovine serum (FBS, Gibco), penicillin (100 U/ml) and streptomycin (100 μg/ml). All cell lines were maintained in a humidified 37°C incubator with 5% CO2. The medium was refreshed every 2–3 days and the cells were passaged at ∼90% confluence by adding the fresh medium, followed by vigorously pipetting the resuspend cells. Of note, the cells were only washed with PBS when a significant number of dead cells were observed.
(§2) The antiproliferation activity of the compounds against the cancer cell lines was evaluated using Cell Counting Kit-8. Briefly, cells (∼1,000 per well) in 100 µl of culture medium were plated in a 96-well plate for 24 h and 100 µl of medium with different concentrations of the tested compounds was added to each well for 48 h. Then 10 μl of CCK8 solution (#CK04, Dojindo) was added and incubated at 37°C for 2 h. The absorbance of each well was measured with a plate reader (BioTeck) at 450 nm. Cell viability was calculated as follows: cell viability (%) = [(As-Ab)/(Ac-Ab)] × 100. Among them, As represents the absorbance of experimental wells, Ab represents the absorbance of blank wells and Ac represents the absorbance of control wells. The experiments were repeated at least three times and IC50 values were determined by plotting a log(inhibitor) v. s normalized response (Variable slope) dose–response curve generated using GraphPad Prism software.

[3] = test system: H1975 cells; test: Cell viability assay (CCK-8), H1975; type: cell-based; conditions: for IC50: Homo sapiens, NCI-H1975, H1975, 48 h, read-out: Antiproliferation activity (pIC50 ± SEM) H1975 (converted)
Procedure: as §1, §2

[4] = 100 µM compound, competitive ABPP with probe FP-TAMRA (250 nM), read-out: ABHD12 Inhibition (%)

| Compound | activity at 100 µM [1, 4] [%] | potency towards ABHD12 [1] | inhibition at 100 µM [1] [%] | IC50 ([2]; A431, 48 h, CCK-8) [µM] | IC50 [3] [µM] | inhibition of cell viability of A431 ([2]; 20 µM, 48 h) [%] | activity [1, 4] [%] | Antiproliferation activity (pIC50 ± SEM) A431 ([2]; A431, 48 h, CCK-8) | Antiproliferation activity (pIC50 ± SEM) H1975 ([3]; H1975, 48 h) |
| --- | --- | --- | --- | --- | --- | --- | --- | --- | --- |
| O=c1cc(-c2ccc(O)cc2)oc2cc(O)cc(O)c12 [compound 9, Apigenin] | 62.8 | neglectable potency | 37 | > 10 | > 10 | – | – | – | – |
| COc1ccc2cc3[n+](cc2c1OC)CCc1cc2c(cc1-3)OCO2 [compound 17, Berberine chloride] | 86.1 | – | – | > 10 | > 10 | – | – | – | – |
| COc1ccc(C(C)=O)c(O)c1 [compound 64, Paeonol] | 92.2 | – | – | 6.31 | > 10 | 78 | – | – | – |
| Cl.N=c1ccn2c(n1)O[C@H]1[C@H](O)[C@@H](CO)O[C@H]12 [compound 1, Cyclocytidine HCl] | – | – | – | – | – | – | 70.1 | <5 | <5 |
| C[C@H]1COC2=C1C(=O)C(=O)c1c2ccc2c1CCCC2(C)C [compound 23, Cryptotanshinone] | 81.6 | neglectable potency | 18 | 7.94 | 10 | – | – | – | – |
